Source: the supplement of paper PMC11451515

System: NOMO1
Test: cell viability relative to DMSO control; higher = less cytotoxic
Conditions: 48 h
How it was run: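 NOMO1 or SEM (500 cells/well) or P12-Ichikawa (1000 cells/well) leukemia cells were adapted for at least four passages in each medium. They were seeded in 1536-well plates (5 μl) and pin-dosed with library compounds in DMSO over an 11-point threefold series, 47 μM to 0.79 nM. CellTiter-Glo One luminescence was read after 48 h at 37°C. Viability is the per-plate percentage relative to DMSO wells, with cell-free wells as background.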

[1] = HPLM + 10% dialyzed FBS, 0.000781 µM
[2] = HPLM + 10% dialyzed FBS, 0.00234 µM
[3] = HPLM + 10% dialyzed FBS, 0.00702 µM
[4] = HPLM + 10% dialyzed FBS, 0.0211 µM
[5] = HPLM + 10% dialyzed FBS, 0.0632 µM
[6] = HPLM + 10% dialyzed FBS, 0.19 µM
[7] = HPLM + 10% dialyzed FBS, 0.569 µM
[8] = HPLM + 10% dialyzed FBS, 1.71 µM
[9] = HPLM + 10% dialyzed FBS, 5.12 µM
[10] = HPLM + 10% dialyzed FBS, 15.4 µM
[11] = HPLM + 10% dialyzed FBS, 46.1 µM
[12] = RPMI 5 mM glucose + 10% FBS, 0.000781 µM
[13] = RPMI 5 mM glucose + 10% FBS, 0.00234 µM
[14] = RPMI 5 mM glucose + 10% FBS, 0.00702 µM
[15] = RPMI 5 mM glucose + 10% FBS, 0.0211 µM
[16] = RPMI 5 mM glucose + 10% FBS, 0.0632 µM
[17] = RPMI 5 mM glucose + 10% FBS, 0.19 µM
[18] = RPMI 5 mM glucose + 10% FBS, 0.569 µM
[19] = RPMI 5 mM glucose + 10% FBS, 1.71 µM
[20] = RPMI 5 mM glucose + 10% FBS, 5.12 µM
[21] = RPMI 5 mM glucose + 10% FBS, 15.4 µM
[22] = RPMI 5 mM glucose + 10% FBS, 46.1 µM
[23] = RPMI 5 mM glucose + 10% dialyzed FBS, 0.000781 µM
[24] = RPMI 5 mM glucose + 10% dialyzed FBS, 0.00234 µM
[25] = RPMI 5 mM glucose + 10% dialyzed FBS, 0.00702 µM
[26] = RPMI 5 mM glucose + 10% dialyzed FBS, 0.0211 µM
[27] = RPMI 5 mM glucose + 10% dialyzed FBS, 0.0632 µM
[28] = RPMI 5 mM glucose + 10% dialyzed FBS, 0.19 µM
[29] = RPMI 5 mM glucose + 10% dialyzed FBS, 0.569 µM
[30] = RPMI 5 mM glucose + 10% dialyzed FBS, 1.71 µM
[31] = RPMI 5 mM glucose + 10% dialyzed FBS, 5.12 µM
[32] = RPMI 5 mM glucose + 10% dialyzed FBS, 15.4 µM
[33] = RPMI 5 mM glucose + 10% dialyzed FBS, 46.1 µM

C[C@H](Cc1ccc(O)c(O)c1)[C@@H](C)Cc1ccc(O)c(O)c1
cell viability [1]: 130% | cell viability [2]: 119% | cell viability [3]: 118% | cell viability [4]: 117% | cell viability [5]: 126% | cell viability [6]: 133% | cell viability [7]: 134% | cell viability [8]: 132% | cell viability [9]: 42% | cell viability [10]: 99.6% | cell viability [11]: 18.4% | cell viability [12]: 141% | cell viability [13]: 114% | cell viability [14]: 112% | cell viability [15]: 122% | cell viability [16]: 117% | cell viability [17]: 109% | cell viability [18]: 119% | cell viability [19]: 114% | cell viability [20]: 111% | cell viability [21]: 104% | cell viability [22]: 57.5% | cell viability [23]: 119% | cell viability [24]: 121% | cell viability [25]: 124% | cell viability [26]: 107% | cell viability [27]: 104% | cell viability [28]: 114% | cell viability [29]: 113% | cell viability [30]: 111% | cell viability [31]: 57% | cell viability [32]: 94.1% | cell viability [33]: 27.9%

NNc1nncc2ccccc12
cell viability [1]: 115% | cell viability [2]: 125% | cell viability [3]: 131% | cell viability [4]: 139% | cell viability [5]: 144% | cell viability [6]: 146% | cell viability [7]: 134% | cell viability [8]: 139% | cell viability [9]: 132% | cell viability [10]: 119% | cell viability [11]: 128% | cell viability [12]: 123% | cell viability [13]: 121% | cell viability [14]: 128% | cell viability [15]: 126% | cell viability [16]: 151% | cell viability [17]: 124% | cell viability [18]: 135% | cell viability [19]: 130% | cell viability [20]: 128% | cell viability [21]: 137% | cell viability [22]: 131% | cell viability [23]: 121% | cell viability [24]: 139% | cell viability [25]: 121% | cell viability [26]: 130% | cell viability [27]: 137% | cell viability [28]: 132% | cell viability [29]: 141% | cell viability [30]: 138% | cell viability [31]: 134% | cell viability [32]: 131% | cell viability [33]: 141%

Oc1ccc(-c2ccc(-c3cc(Nc4cccc(CNC5CC5)c4)[nH]n3)cc2)c(O)c1
cell viability [1]: 93.9% | cell viability [2]: 104% | cell viability [3]: 108% | cell viability [4]: 116% | cell viability [5]: 127% | cell viability [6]: 116% | cell viability [7]: 102% | cell viability [8]: 93.4% | cell viability [9]: 41.4% | cell viability [10]: 40% | cell viability [11]: 60.6% | cell viability [12]: 104% | cell viability [13]: 99% | cell viability [14]: 103% | cell viability [15]: 97.4% | cell viability [16]: 115% | cell viability [17]: 109% | cell viability [18]: 114% | cell viability [19]: 96.7% | cell viability [20]: 49.5% | cell viability [21]: 27.8% | cell viability [22]: 30.8% | cell viability [23]: 99.3% | cell viability [24]: 94.4% | cell viability [25]: 106% | cell viability [26]: 109% | cell viability [27]: 107% | cell viability [28]: 102% | cell viability [29]: 119% | cell viability [30]: 107% | cell viability [31]: 71.1% | cell viability [32]: 26% | cell viability [33]: 31.1%

Cc1ccc(-c2cc(C(F)(F)F)nn2-c2ccc([S+](N)(=O)[O-])cc2)cc1
cell viability [12]: 115% | cell viability [13]: 122% | cell viability [14]: 110% | cell viability [15]: 126% | cell viability [16]: 126% | cell viability [17]: 114% | cell viability [18]: 115% | cell viability [19]: 112% | cell viability [20]: 112% | cell viability [21]: 128% | cell viability [22]: 103% | cell viability [23]: 121% | cell viability [24]: 119% | cell viability [25]: 121% | cell viability [26]: 118% | cell viability [27]: 107% | cell viability [28]: 110% | cell viability [29]: 117% | cell viability [30]: 121% | cell viability [31]: 104% | cell viability [32]: 109% | cell viability [33]: 92.7%

O=C(NCc1ccccc1)c1csc(Nc2ccncn2)n1
cell viability [1]: 86.8% | cell viability [2]: 95.2% | cell viability [3]: 101% | cell viability [4]: 94% | cell viability [5]: 121% | cell viability [6]: 97.3% | cell viability [7]: 97.6% | cell viability [8]: 51.2% | cell viability [9]: 26.7% | cell viability [10]: 4.88% | cell viability [11]: 2.11% | cell viability [12]: 90.8% | cell viability [13]: 82.1% | cell viability [14]: 98.6% | cell viability [15]: 83% | cell viability [16]: 94.8% | cell viability [17]: 98.2% | cell viability [18]: 95.4% | cell viability [19]: 56.6% | cell viability [20]: 33.4% | cell viability [21]: 4.95% | cell viability [22]: 3.15% | cell viability [23]: 92% | cell viability [24]: 95% | cell viability [25]: 93.2% | cell viability [26]: 85.2% | cell viability [27]: 93.7% | cell viability [28]: 77.2% | cell viability [29]: 103% | cell viability [30]: 67.7% | cell viability [31]: 33.9% | cell viability [32]: 4.75% | cell viability [33]: 3.19%

COc1ccc(C2(C#N)CCC(C(=O)O)CC2)cc1OC1CCCC1 (configuration not stated)
cell viability [1]: 91% | cell viability [2]: 109% | cell viability [3]: 95% | cell viability [4]: 116% | cell viability [5]: 120% | cell viability [6]: 123% | cell viability [7]: 113% | cell viability [8]: 113% | cell viability [9]: 111% | cell viability [10]: 102% | cell viability [11]: 108% | cell viability [12]: 82.4% | cell viability [13]: 91.8% | cell viability [14]: 84.9% | cell viability [15]: 87.5% | cell viability [16]: 94.1% | cell viability [17]: 96.8% | cell viability [18]: 96.3% | cell viability [19]: 85.7% | cell viability [20]: 101% | cell viability [21]: 89.6% | cell viability [22]: 90.6% | cell viability [23]: 99.5% | cell viability [24]: 105% | cell viability [25]: 98.3% | cell viability [26]: 102% | cell viability [27]: 98.2% | cell viability [28]: 95% | cell viability [29]: 107% | cell viability [30]: 101% | cell viability [31]: 101% | cell viability [32]: 100% | cell viability [33]: 105%

CCCCc1nc2cc(/C=C/C(=O)NO)ccc2n1CCN(CC)CC
cell viability [1]: 109% | cell viability [2]: 112% | cell viability [3]: 94.2% | cell viability [4]: 106% | cell viability [5]: 86.9% | cell viability [6]: 99.7% | cell viability [7]: 85.1% | cell viability [8]: 84.8% | cell viability [9]: 39.3% | cell viability [10]: 4.23% | cell viability [11]: 6.15% | cell viability [12]: 80.5% | cell viability [13]: 83.2% | cell viability [14]: 83.2% | cell viability [15]: 87.1% | cell viability [16]: 94.2% | cell viability [17]: 89.3% | cell viability [18]: 86.8% | cell viability [19]: 85.9% | cell viability [20]: 28.6% | cell viability [21]: 4.31% | cell viability [22]: 4.51% | cell viability [23]: 74.9% | cell viability [24]: 98.4% | cell viability [25]: 86.4% | cell viability [26]: 91.5% | cell viability [27]: 94.3% | cell viability [28]: 97.2% | cell viability [29]: 86.2% | cell viability [30]: 79.3% | cell viability [31]: 57.9% | cell viability [32]: 5.08% | cell viability [33]: 4.97%

Cc1nc(N)ncc1-c1nc(N2CCOCC2)c2sc(C(C)(C)O)cc2n1
cell viability [12]: 109% | cell viability [13]: 118% | cell viability [14]: 113% | cell viability [15]: 117% | cell viability [16]: 106% | cell viability [17]: 64% | cell viability [18]: 18.7% | cell viability [19]: 18.5% | cell viability [20]: 10.5% | cell viability [21]: 9.97% | cell viability [22]: 9.89% | cell viability [23]: 114% | cell viability [24]: 113% | cell viability [25]: 94.2% | cell viability [26]: 111% | cell viability [27]: 89.5% | cell viability [28]: 86.4% | cell viability [29]: 28.1% | cell viability [30]: 22.6% | cell viability [31]: 13.3% | cell viability [32]: 11.4% | cell viability [33]: 7.33%
